From PubChem BioAssay AID2060507 (Molecular Pharmacology Branch, DTP, NCI, 2025)
Values joined by “and” are separate entries in the source; they are usually repeats but may differ in a detail not shown here. Equal values may be shown once.

System: 519858-162-T-J1-PDC complex spheroid viability
Assay: Anticancer human tumor 519858-162-T-J1-PDC patient-derived colon adenocarcinoma cell line growth inhibition [GQUAD]
Conditions: for viability, T/C: stronger effect = lower value
Source text: DNA G-quadruplex Stabilizer Agents in Combinations in Complex Spheroids
A high-throughput screen of multi-cell type tumor spheroids was designed to identify active combinations of DNA G-quadruplex stabilizer agents and targeted small molecules. Complex spheroids include a stromal component modeled by human endothelial cells (HUVEC) and fibroblasts modeled by human mesenchymal stem cells (MSCs). The concentration ranges selected for each drug and investigational agent were based upon clinically achievable concentrations if the clinical Cmax of the agent was known.
Compounds. The drugs and investigational agents: pidnarulex (CX-5461; NSC782164), APTO-253 (NSC789042), BRACO-19 (NSC847499), peposertib (NSC802822), ceralasertib (NSC780249), elimusertib (NSC800525), camonsertib (NSC841442), AZD-1390 (NSC803789), olaparib (NSC753686), talazoparib (NSC767125), ART-558 (NSC835418), sotorasib (NSC818433), MRTX-1133 (NSC836407), SN-38 (NSC673596), topotecan (NSC609699), etoposide (NSC141540), doxorubicin (NSC123127), gemcitabine (NSC613327), 5-fluorouracil (NSC19893), paclitaxel (NSC125973), vemurafenib (NSC761431), panobinostat (NSC761190), R-306465 (JNJ-16241199; NSC773264), adavosertib (NSC754352), TP-3654 (NSC805149), carboplatin (NSC241240), KSQ-4279 (NSC840948), and staurosporine (NSC755774) were obtained from the National Cancer Institute (NCI) Developmental Therapeutics Program Chemical Repository (34). The FDA-approved anticancer drug set is available from the NCI Developmental Therapeutics Program. […] The stock solutions were prepared in dimethyl sulfoxide (DMSO, Sigma-Aldrich, St. Louis, MO, cat. D2650) at 800-fold the tested concentration and stored at -70 degrees C prior to their use. All drugs and investigational agents were tested over a range starting from a high concentration at or near the clinical Cmax and decreasing in half-log increments. If the clinical Cmax for an agent had not been determined, the highest concentration tested was 10 microM.
2.3 Cell Culture. All cells were maintained in an incubator at 37 degrees C and 5% CO2 with 95% humidity. The PDC lines were cultured according to standard operating procedures established by the NCI PDMR. All PDCs were thawed and cultured in Matrigel-coated flasks prepared with a working solution of 1X Ham's F-12 nutrient mix, without supplementation (Invitrogen, cat. 11765054), 100 U/mL penicillin-streptomycin (Invitrogen, cat. 15140122), and 2.5% Matrigel (Corning Inc., cat. 354248) for the first three passages. The 857933-349-R-J2-PDC line was cultured in 6C/Colon 1B media, which includes advanced DMEM/F-12 (Thermo Fisher Scientific, cat. 12634028), 10 mM HEPES (Thermo Fisher Scientific, cat. 15630080), 1X GlutaMAX supplement (Thermo Fisher Scientific, cat. 35050061), 0.1 mg/mL primocin (InvivoGen, cat. ant-pm-2), 10% defined fetal bovine serum, heat inactivated (HyClone Laboratories Inc., cat. SH30070.03HI), 50% L-WRN conditioned media (ATCC, cat. CRL-3276), 1.25 mM N-Acetyl-L-cysteine (Sigma-Aldrich, cat. A9165), 10 mM nicotinamide (Sigma-Aldrich, cat. N0636), 1X B-27 supplement (Thermo Fisher Scientific, cat. 17504044), 1X N-2 supplement (Thermo Fisher Scientific, cat. 17502048), 10 microM Y-27632 dihydrochloride (Tocris Bioscience, cat. 1254), and 50 ng/mL human EGF recombinant protein (Thermo Fisher Scientific, cat. PHG0311). The 485176-168-R4-J1-PDC line was cultured in Panc media, which includes all 6C/Colon 1B media components plus 100 ng/mL human FGF-10 (Thermo Fisher Scientific, cat. 100-26), 500 nM SB-431542 (Selleckchem, cat. S1067), and gastrin (Tocris, cat. 3006).
[…]

[1] = curve of first compound, second compound 0.0316 µM
[2] = curve of first compound, second compound 0.1 µM
[3] = curve of first compound, second compound 0.316 µM
[4] = curve of first compound, second compound 1 µM
[5] = curve of first compound, second compound 3.16 µM
[6] = curve of first compound, second compound 10 µM
[7] = second compound 0.0316 µM, first compound 0.0316 µM
[8] = second compound 0.0316 µM, first compound 0.316 µM
[9] = second compound 0.1 µM, first compound 0.0316 µM
[10] = second compound 0.1 µM, first compound 0.316 µM
[11] = second compound 0.316 µM, first compound 0.0316 µM
[12] = second compound 0.316 µM, first compound 0.316 µM
[13] = second compound 1 µM, first compound 0.0316 µM
[14] = second compound 1 µM, first compound 0.316 µM
[15] = second compound 3.16 µM, first compound 0.0316 µM
[16] = second compound 3.16 µM, first compound 0.316 µM
[17] = second compound 10 µM, first compound 0.0316 µM
[18] = second compound 10 µM, first compound 0.316 µM
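Also: spheroids exposed to compounds for 7 days.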
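For viability, T/C in this document: 100% = DMSO vehicle control viability.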

SMILES: CC[C@@]1(O)C(=O)OCc2c1cc1n(c2=O)Cc2cc3c(CN(C)C)c(O)ccc3nc2-1 + Cc1[nH]c2ccc(F)cc2c1-c1nc2c3cccnc3c3ncccc3c2[nH]1
- IC50 [1]: > 0.316 µM
- IC50 [2]: > 0.316 µM
- IC50 [3]: > 0.316 µM
- IC50 [4]: > 0.316 µM
- IC50 [5]: 0.000999 µM
- IC50 [6]: > 0.316 µM
- viability, T/C (second compound 0.0316 µM, first compound 0.000999 µM): 119%
- viability, T/C (second compound 0.0316 µM, first compound 0.00316 µM): 106%
- viability, T/C (second compound 0.0316 µM, first compound 0.00999 µM): 103%
- viability, T/C [7]: 76.5%
- viability, T/C (second compound 0.0316 µM, first compound 0.0999 µM): 72.1%
- viability, T/C [8]: 88.9%
- viability, T/C (second compound 0.1 µM, first compound 0.000999 µM): 86%
- viability, T/C (second compound 0.1 µM, first compound 0.00316 µM): 90.9%
- viability, T/C (second compound 0.1 µM, first compound 0.00999 µM): 94.3%
- viability, T/C [9]: 88.9%
- viability, T/C (second compound 0.1 µM, first compound 0.0999 µM): 73.2%
- viability, T/C [10]: 75.5%
- viability, T/C (second compound 0.316 µM, first compound 0.000999 µM): 58.7%
- viability, T/C (second compound 0.316 µM, first compound 0.00316 µM): 97.1%
- viability, T/C (second compound 0.316 µM, first compound 0.00999 µM): 99.3%
- viability, T/C [11]: 93.8%
- viability, T/C (second compound 0.316 µM, first compound 0.0999 µM): 97.2%
- viability, T/C [12]: 69.4%
- viability, T/C (second compound 1 µM, first compound 0.000999 µM): 86%
- viability, T/C (second compound 1 µM, first compound 0.00316 µM): 60.9%
- viability, T/C (second compound 1 µM, first compound 0.00999 µM): 85.1%
- viability, T/C [13]: 104%
- viability, T/C (second compound 1 µM, first compound 0.0999 µM): 69.7%
- viability, T/C [14]: 75.9%
- viability, T/C (second compound 3.16 µM, first compound 0.000999 µM): 56.4%
- viability, T/C (second compound 3.16 µM, first compound 0.00316 µM): 55.6%
- viability, T/C (second compound 3.16 µM, first compound 0.00999 µM): 46.5%
- viability, T/C [15]: 48.6%
- viability, T/C (second compound 3.16 µM, first compound 0.0999 µM): 78.1%
- viability, T/C [16]: 77.1%
- viability, T/C (second compound 10 µM, first compound 0.000999 µM): 60%
- viability, T/C (second compound 10 µM, first compound 0.00316 µM): 58.3%
- viability, T/C (second compound 10 µM, first compound 0.00999 µM): 50.7%
- viability, T/C [17]: 60.9%
- viability, T/C (second compound 10 µM, first compound 0.0999 µM): 85.3%
- viability, T/C [18]: 60%

SMILES: C=CC(=O)N1CCN(c2nc(=O)n(-c3c(C)ccnc3C(C)C)c3nc(-c4c(O)cccc4F)c(F)cc23)C(C)C1 (stereo not drawn)
- viability, T/C (compound 0.0316 µM): 75% and 84.1% and 70.8%
- viability, T/C (compound 0.1 µM): 84.2% and 85.5% and 98.3%
- viability, T/C (compound 0.316 µM): 89% and 80.9% and 104%
- viability, T/C (compound 1 µM): 103% and 77.7% and 99%
- viability, T/C (compound 3.16 µM): 104% and 70.7% and 95.2%
- viability, T/C (compound 10 µM): 71.5% and 91% and 74.5%
- IC50 (curve of compound): > 10 µM

SMILES: C#Cc1c(F)ccc2cc(O)cc(-c3ncc4c(N5CC6CCC(C5)N6)nc(OCC56CCCN5CC(F)C6)nc4c3F)c12 (stereo not drawn)
- viability, T/C (compound 0.0316 µM): 93.8% and 103% and 90.4%
- viability, T/C (compound 0.1 µM): 101% and 86% and 69.8%
- viability, T/C (compound 0.316 µM): 110% and 97.8% and 105%
- viability, T/C (compound 1 µM): 83.9% and 94.1% and 98.5%
- viability, T/C (compound 3.16 µM): 88.3% and 93.2% and 89%
- viability, T/C (compound 10 µM): 86.6% and 71.6% and 81.2%
- IC50 (curve of compound): > 10 µM

SMILES: COc1ncnc(C2CC2)c1-c1ncc2cnn(Cc3ccc(-c4nc(C(F)(F)F)cn4C(C)C)cc3)c2n1 + CN(C)c1ccc(Nc2c3ccc(NC(=O)CCN4CCCC4)cc3nc3cc(NC(=O)CCN4CCCC4)ccc23)cc1
- IC50 [1]: > 10 µM
- IC50 [2]: > 10 µM
- IC50 [3]: > 10 µM
- IC50 [4]: > 10 µM
- IC50 [5]: > 10 µM
- IC50 [6]: > 10 µM
- viability, T/C [7]: 120%
- viability, T/C (second compound 0.0316 µM, first compound 0.1 µM): 83%
- viability, T/C [8]: 103%
- viability, T/C (second compound 0.0316 µM, first compound 1 µM): 89.3%
- viability, T/C (second compound 0.0316 µM, first compound 3.16 µM): 99.6%
- viability, T/C (second compound 0.0316 µM, first compound 10 µM): 115%
- viability, T/C [9]: 93.4%
- viability, T/C (second compound 0.1 µM, first compound 0.1 µM): 97.8%
- viability, T/C [10]: 102%
- viability, T/C (second compound 0.1 µM, first compound 1 µM): 75.6%
- viability, T/C (second compound 0.1 µM, first compound 3.16 µM): 91.4%
- viability, T/C (second compound 0.1 µM, first compound 10 µM): 103%
- viability, T/C [11]: 86%
- viability, T/C (second compound 0.316 µM, first compound 0.1 µM): 117%
- viability, T/C [12]: 116%
- viability, T/C (second compound 0.316 µM, first compound 1 µM): 76%
- viability, T/C (second compound 0.316 µM, first compound 3.16 µM): 66.5%
- viability, T/C (second compound 0.316 µM, first compound 10 µM): 84.9%
- viability, T/C [13]: 85.1%
- viability, T/C (second compound 1 µM, first compound 0.1 µM): 80.7%
- viability, T/C [14]: 67.5%
- viability, T/C (second compound 1 µM, first compound 1 µM): 68%
- viability, T/C (second compound 1 µM, first compound 3.16 µM): 73%
- viability, T/C (second compound 1 µM, first compound 10 µM): 72.4%
- viability, T/C [15]: 114%
- viability, T/C (second compound 3.16 µM, first compound 0.1 µM): 79.7%
- viability, T/C [16]: 52.2%
- viability, T/C (second compound 3.16 µM, first compound 1 µM): 56.6%
- viability, T/C (second compound 3.16 µM, first compound 3.16 µM): 54%
- viability, T/C (second compound 3.16 µM, first compound 10 µM): 69.8%
- viability, T/C [17]: 58.7%
- viability, T/C (second compound 10 µM, first compound 0.1 µM): 53.3%
- viability, T/C [18]: 99.4%
- viability, T/C (second compound 10 µM, first compound 1 µM): 61.9%
- viability, T/C (second compound 10 µM, first compound 3.16 µM): 51.7%
- viability, T/C (second compound 10 µM, first compound 10 µM): 104%
